The values that follow come from patent US5756763A, “Pyrrolidine derivatives” (Zaidan Hojin Biseibutsu Kagaku Kenkyukai, priority 1993, dated 1998).

A word on the IC50: it is the point on the concentration scale where inhibition reaches its midpoint.

Molecules are shown by their SMILES.

In one test the target is T1, prolyl endopeptidase (Sus scrofa, UniProt P23687).
T1 construct: swine kidney-derived prolyl endopeptidase; from tissue; host or cells: swine kidney
T1 sequence (P23687 whole entry): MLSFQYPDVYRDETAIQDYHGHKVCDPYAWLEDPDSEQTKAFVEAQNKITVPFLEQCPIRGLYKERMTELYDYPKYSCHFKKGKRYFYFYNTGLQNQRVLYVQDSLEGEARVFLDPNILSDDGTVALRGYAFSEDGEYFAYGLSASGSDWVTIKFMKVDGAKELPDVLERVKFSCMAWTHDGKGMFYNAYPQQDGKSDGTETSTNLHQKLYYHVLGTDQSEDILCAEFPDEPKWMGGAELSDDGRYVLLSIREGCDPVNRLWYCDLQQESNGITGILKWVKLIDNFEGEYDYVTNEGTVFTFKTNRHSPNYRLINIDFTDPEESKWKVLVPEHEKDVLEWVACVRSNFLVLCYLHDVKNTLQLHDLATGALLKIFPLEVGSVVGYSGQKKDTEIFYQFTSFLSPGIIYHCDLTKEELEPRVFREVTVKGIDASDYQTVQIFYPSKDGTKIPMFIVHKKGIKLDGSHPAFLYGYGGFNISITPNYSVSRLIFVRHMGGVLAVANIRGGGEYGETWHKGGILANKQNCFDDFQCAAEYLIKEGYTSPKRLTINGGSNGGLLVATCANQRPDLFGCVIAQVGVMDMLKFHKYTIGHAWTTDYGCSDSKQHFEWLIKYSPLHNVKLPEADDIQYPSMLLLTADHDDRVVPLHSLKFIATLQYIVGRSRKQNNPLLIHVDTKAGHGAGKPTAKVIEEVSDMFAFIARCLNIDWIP
The experiment in a line: Enzyme inhibitory action on swine kidney-derived prolyl endopeptidase (Z-Gly-Pro-β-naphthylamide substrate). The format is biochemical. The settings on record: in vitro, qualitative statement. On the procedure:
Using 0.1 mM of benzyolxycarbonylglycylproline-β-naphthylamide as substrate and swine kidney-derived prolyl endopeptidase as enzyme, the enzyme was acted on the substrate at 37° C. for 30 minutes in 0.025 M Tris(hydroxymethyl)methane amine-hydrochloric acid (pH 7.5) solution. Fast Garnet was added to form a color and absorbance was measured at 525 nm. The inhibitory activity is expressed in terms of concentration required for 50% inhibition (IC50).
With `O=C(NC1CCCCCC1)C(=O)C1CCCN1C(=O)C(Cc1ccccc1)NC(=O)c1cccc(Oc2ccccc2)c1` (stereo not shown) [Example 41, N-Cycloheptyl-2-oxo-2-[2-(1-(N-(3-phenoxybenzoyl)-phenylalanyl)pyrrolidinyl)]acetamide], the “prolyl endopeptidase inhibition activity (in words)” value is “potent inhibition activity on almost the same level”.
Regarding `O=C(NC1CCCC1)C(=O)C1CCCN1C(=O)C(Cc1ccccc1)NC(=O)c1cccc(Oc2ccccc2)c1` (stereo not shown) [Example 13, N-Cyclopentyl-2-oxo-2-[2-(1-(N-(3-phenoxybenzoyl)phenylalanyl)pyrrolidinyl)]acetamide], the “prolyl endopeptidase inhibition activity (in words)” value is “potent inhibition activity on almost the same level”.
Still for that read-out and setting: to `O=C(NC1CCCCC1)C(=O)C1CCCN1C(=O)C(Cc1ccccc1)NC(=O)c1cccc(Oc2ccccc2)c1` (stereo not shown) [Example 28, N-Cyclohexyl-2-oxo-2-[2-(1-(N-(3-phenoxybenzoyl)phenylalanyl)pyrrolidinyl)]acetamide] belongs “potent inhibition activity on almost the same level”.
Still for that read-out and setting: the value for `O=C(NC1CC1)C(=O)C1CCCN1C(=O)C(Cc1ccccc1)NC(=O)c1cccc(Oc2ccccc2)c1` (stereo not shown) [Example 108, N-Cyclopropyl-2-oxo-2-[2-(1-(N-(3-phenoxybenzoyl)phenylalanyl)pyrrolidinyl)]acetamide] was “potent inhibition activity on almost the same level”.

Staying with this test, now noted: swine kidney prolyl endopeptidase, 0.1 mM substrate, 37° C., 30 minutes, pH 7.5.
Take `O=C(NCCN1CCOCC1)C(=O)C1CCCN1C(=O)c1ccc(Cl)cc1` (stereo not shown) [Example 95, N-(2-Morpholinoethyl)-2-oxo-2-[2-(1-(4-chlorobenzoyl)-pyrrolidinyl)]acetamide]: the 50% inhibitory concentration (IC50) is 168 nM.
On the same count and under the same terms, the value for `O=C(CCC1CCCCC1)NC(Cc1ccccc1)C(=O)N1CCCC1C(=O)C(=O)NC1CCCCC1` (stereo not shown) [Example 33, N-Cyclohexyl-2-oxo-2-[2-(1-(N-(3-cyclohexylpropionyl)-phenylalanyl)pyrrolidinyl)]acetamide] was 0.981 nM; that for `O=C(NC1CCCCC1)C(=O)C1CCCN1C(=O)C1CCCN1C(=O)CSc1ccncc1` (stereo not shown) [Example 55, N-Cyclohexyl-2-oxo-2-[2-(1-(N-(4-pyridylthioacetyl)prolyl)pyrrolidinyl)]acetamide] was 1.69 nM; that for `O=C(COc1ccccc1)NC(Cc1ccccc1)C(=O)N1CCCC1C(=O)C(=O)NC1CCCCC1` (stereo not shown) [Example 20, N-Cyclohexyl-2-oxo-2-[2-(1-(N-phenoxyacetylphenylalanyl)pyrrolidinyl)]acetamide] was 1.58 nM.
Consider `O=C(NC1CCCCC1)C(=O)C1CCCN1C(=O)CN(Cc1ccccc1)C(=O)c1ccncc1` (stereo not shown) [Example 60, N-Cyclohexyl-2-oxo-2-[2-(1-(N-isonicotinonyl-N-benzylglycyl)pyrrolidinyl)]acetamide], for which half-maximal inhibition (IC50) required 8.81 nM.
The same measure, in the same setting: to `O=C(NC1CCCCC1)C(=O)C1CCCN1C(=O)C(Cc1ccccc1)NC(=O)c1cccnc1` (stereo not shown) [Example 53, N-Cyclohexyl-2-oxo-2-[2-(1-(N-(nicotinonyl)phenylalanyl)pyrrolidinyl)]acetamide] belongs 4.2 nM.
The same measure, in the same setting: to `O=C(NC1CCCCC1)C(=O)C1CCCN1C(=O)C(Cc1ccccc1)NC(=O)c1ccccc1` (stereo not shown) [Example 43, N-Cyclohexyl-2-oxo-2-[2-(1-(N-benzoylphenylalanyl)pyrrolidinyl)]acetamide] belongs 1.89 nM; to `O=C(NCc1nc2ccccc2[nH]1)C(=O)C1CCCN1C(=O)c1ccc(Cl)cc1` (stereo not shown) [Example 93, N-(2-Benzimidazolylmethyl)-2-oxo-2-[2-(1-(4-chlorobenzoyl)pyrrolidinyl)]acetamide], 134 nM.
On the same count and under the same terms, the value for `O=C(NC1CCCCC1)C(=O)C1CCCN1C(=O)c1ccc2ccccc2n1` (stereo not shown) [Example 66, N-Cyclohexyl-2-oxo-2-[2-(1-(2-quinolylcarbonyl)pyrrolidinyl)]acetamide] was 26.4 nM; that for `CC(C)C(NC(=O)c1cccc(Oc2ccccc2)c1)C(=O)N1CCCC1C(=O)C(=O)NC1CCCCC1` (stereo not shown) [Example 7, N-cyclohexyl-2-oxo-2-[2-(1-(N-(3-phenoxybenzoyl)valyl)pyrrolidinyl)]acetamide] was 0.962 nM; that for `O=C(CSc1ccccc1)NC(Cc1ccccc1)C(=O)N1CCCC1C(=O)C(=O)NC1CCCCC1` (stereo not shown) [Example 47, N-Cyclohexyl-2-oxo-2-[2-(1-(N-(phenylthioacetyl)-phenylalanyl)pyrrolidinyl)]acetamide] was 1.53 nM.
In turn, `O=C(NC1CCCCC1)C(=O)C1CCCN1C(=O)C(Cc1ccccc1)NC(=O)c1ccncc1` (stereo not shown) [Example 49, N-Cyclohexyl-2-oxo-2-[2-(1-(N-(isonicotinonyl)-phenylalanyl)pyrrolidinyl)]acetamide] showed a concentration for half-maximal inhibition (IC50) of 6.5 nM.
As to `O=C(NC1CCCCC1)C(=O)C1CCCN1C(=O)C(Cc1ccccc1)NC(=O)c1ccc2ccccc2n1` (stereo not shown) [Example 115, N-Cyclohexyl-2-oxo-2-[2-(1-(N-(2-quinolylcarbonyl)phenylalanyl)pyrrolidinyl)]acetamide], half-maximal inhibition (IC50) was put at 2.09 nM.
The same measure, in the same setting: the value for `O=C(NC1CCCCC1)C(=O)C1CCCN1C(=O)C(Cc1ccccc1)NC(=O)c1ccc2ccccc2c1` (stereo not shown) [Example 22, N-Cyclohexyl-2-oxo-2-[2-(1-(N-(2-naphthoyl)phenylalanyl)pyrrolidinyl)]acetamide] was 3.23 nM; that for `O=C(Cc1ccccn1)NC(Cc1ccccc1)C(=O)N1CCCC1C(=O)C(=O)NC1CCCCC1` (stereo not shown) [Example 24, N-Cyclohexyl-2-oxo-2-[2-(1-(N-(2-pyridyl)acetylphenylalanyl)pyrrolidinyl)]acetamide] was 2.24 nM; that for `O=C(NC1CCCCC1)C(=O)C1CCCN1C(=O)C=Cc1ccc(Cl)cc1` (stereo not shown) [Example 70, N-Cyclohexyl-2-oxo-2-[2-(1-(3-(4-chlorophenyl)acryloyl)pyrrolidinyl)]acetamide] was 111 nM.
As to `O=C(NC1CCCCCC1)C(=O)C1CCCN1C(=O)C(Cc1ccccc1)NC(=O)c1cccc(Oc2ccccc2)c1` (stereo not shown) [Example 41, N-Cycloheptyl-2-oxo-2-[2-(1-(N-(3-phenoxybenzoyl)-phenylalanyl)pyrrolidinyl)]acetamide], inhibition was half-maximal at 1.38 nM (IC50).
Compound `O=C(NC1CCCCC1)C(=O)C1CCCN1C(=O)C=Cc1ccccc1` (stereo not shown) [Example 68, N-Cyclohexyl-2-oxo-2-[2-(1-cinnamoylpyrrolidinyl)]acetamide] gave an IC50 of 48 nM.
`O=C(NC1CCCCC1)C(=O)C1CCCN1C(=O)[C@H](Cc1ccccc1)NC(=O)c1ccc(CN2CCOCC2)cc1` (stereo partly shown) [Example 57, N-Cyclohexyl-2-oxo-2-[2-(1-(N-(4-morpholinomethylbenzoyl)phenylalanyl)pyrrolidinyl)]acetamide] had a 50% inhibitory concentration (IC50) of 9.4 nM.
The same measure, in the same setting: to `O=C(NC1CCCCC1)C(=O)C1CCCN1C(=O)C=Cc1cccnc1` (stereo not shown) [Example 72, N-Cyclohexyl-2-oxo-2-[2-(1-(3-(3-pyridyl)acryloyl)pyrrolidinyl)]acetamide] belongs 239 nM.
Still for that read-out and setting: to `O=C(NC1CCCC1)C(=O)C1CCCN1C(=O)C(Cc1ccccc1)NC(=O)c1cccc(Oc2ccccc2)c1` (stereo not shown) [Example 13, N-Cyclopentyl-2-oxo-2-[2-(1-(N-(3-phenoxybenzoyl)phenylalanyl)pyrrolidinyl)]acetamide] belongs 1.48 nM; to `O=C(NC1CCCCC1)C(=O)C1CCCN1C(=O)C(Cc1ccccc1)NC(=O)c1cccs1` (stereo not shown) [Example 18, N-Cyclohexyl-2-oxo-2-[2-(1-(N-(2-thenoyl)phenylalanyl)pyrrolidinyl)]acetamide], 2.28 nM.
As to `CC(C)C(NC(=O)c1ccc2ccccc2n1)C(=O)N1CCCC1C(=O)C(=O)NC1CCCCC1` (stereo not shown) [Example 9, N-Cyclohexyl-2-oxo-2-[2-(1-(N-(2-quinolinecarbonyl)valyl)pyrrolidinyl)]acetamide], inhibition was half-maximal at 1.34 nM (IC50).
As for `CC(C)C(NC(=O)OCc1ccccc1)C(=O)N1CCCC1C(=O)C(=O)NC1CCCCC1` (stereo not shown) [Example 4, N-cyclohexyl-2-oxo-2-[2-(1-(N-benzyloxycarbonylvalyl)pyrrolidinyl)]acetamide], the half-maximal inhibitory concentration (IC50) was 1.09 nM.
Same read-out and setting: to `O=C(NC1CCCCCC1)C(=O)C1CCCN1C(=O)c1ccc2ccccc2c1` (stereo not shown) [Example 78, N-Cycloheptyl-2-oxo-2-[2-(1-(2-naphthoyl)pyrrolidinyl)]acetamide] belongs 23.4 nM.
On the same count and under the same terms, to `O=C(NC1CCCCC1)C(=O)C1CCCN1C(=O)C(Cc1ccccc1)NC(=O)c1cccc(Oc2ccccc2)c1` (stereo not shown) [Example 28, N-Cyclohexyl-2-oxo-2-[2-(1-(N-(3-phenoxybenzoyl)phenylalanyl)pyrrolidinyl)]acetamide] belongs 1.14 nM.
For `O=C(CSc1ccncc1)NC(Cc1ccccc1)C(=O)N1CCCC1C(=O)C(=O)NC1CCCCC1` (stereo not shown) [Example 51, N-Cyclohexyl-2-oxo-2-[2-(1-(N-(4-pyridylthioacetyl)-phenylalanyl)pyrrolidinyl)]acetamide], the IC50 was 2.68 nM.
On the same count and under the same terms, to `O=C(C=Cc1ccco1)NC(Cc1ccccc1)C(=O)N1CCCC1C(=O)C(=O)NC1CCCCC1` (stereo not shown) [Example 31, N-Cyclohexyl-2-oxo-2-[2-(1-(N-(3-(2-furyl)acryloyl)-phenylalanyl)pyrrolidinyl)]acetamide] belongs 6.31 nM; to `O=C(NCCc1ccccn1)C(=O)C1CCCN1C(=O)c1ccc(Cl)cc1` (stereo not shown) [Example 97, N-(2-(2-Pyridyl)ethyl)-2-oxo-2-[2-(1-(4-chlorobenzoyl)pyrrolidinyl)]acetamide], 90.7 nM.
The same measure, in the same setting: to `O=C(NC1CCCCC1)C(=O)C1CCCN1C(=O)c1ccc(CN2CCCCC2)cc1` (stereo not shown) [Example 86, N-Cyclohexyl-2-oxo-2-[2-(1-(4-piperidinomethylbenzoyl)pyrrolidinyl)]acetamide] belongs 82.2 nM; to `O=C(NC1CCCCC1)C(=O)C1CCCN1C(=O)c1ccc(Cn2ccnc2)cc1` (stereo not shown) [Example 88], 132 nM.
The same measure, in the same setting: to `CC(C)(C)OC(=O)N1c2ccccc2CC1C(=O)N1CCCC1C(=O)C(=O)NC1CCCCC1` (stereo not shown) [Example 126, N-Cyclohexyl-2-oxo-2-[2-(1-(1-t-butoxycarbonyl-2,3-dihydroindole-2-carbonyl)pyrrolidinyl)]acetamide] belongs 1.7 nM; to `O=C(NC1CC1)C(=O)C1CCCN1C(=O)C(Cc1ccccc1)NC(=O)c1cccc(Oc2ccccc2)c1` (stereo not shown) [Example 108, N-Cyclopropyl-2-oxo-2-[2-(1-(N-(3-phenoxybenzoyl)phenylalanyl)pyrrolidinyl)]acetamide], 1.33 nM.
Compound `O=C(NC1CCCCC1)C(=O)C1CCCN1C(=O)c1cccc(Oc2ccccc2)c1` (stereo not shown) [Example 76, N-Cyclohexyl-2-oxo-2-[2-(1-(3-phenoxybenzoyl)pyrrolidinyl)]acetamide] gave a half-inhibitory concentration (IC50) of 13.8 nM.
`O=C[C@@H]1CCCN1C(=O)[C@H](Cc1ccccc1)NC(=O)c1cccc(Oc2ccccc2)c1` [Reference Example 4, N-(N-(3-Phenoxybenzoyl)-L-phenylalanyl)-L-prolinal, reference compound] had a 50% inhibitory concentration (IC50) of 249 nM.
On the same count and under the same terms, to `O=C(NC1CCCCC1)C(=O)C1CCCN1C(=O)C(CC1CCCCC1)NC(=O)c1ccc2ccccc2n1` (stereo not drawn) [Example 124, N-Cyclohexyl-2-oxo-2-[2-(1-(N-(2-quinolylcarbonyl)-β-cyclohexylalanyl)pyrrolidinyl)]acetamide] belongs 3.75 nM.
